Usually IC50 stands for the concentration that inhibits the measured activity by half.

The subject of assay [1] is MCF7. The experiment in a line: Cytotoxicity against Homo sapiens (human) MCF-7 cells assessed as surviving fraction at 50 uM after 48 hr by SRB assay relative to control. The format is functional. On the technique in general: The SRB assay estimates cell density from bound dye.
Assay [2] has as its system MCF7. Kind of assay: Cytotoxicity against Homo sapiens (human) MCF-7 cells assessed as surviving fraction at 10 uM after 48 hr by SRB assay relative to control. The format is functional.
The subject of assay [3] is MCF7. Kind of assay: Cytotoxicity against Homo sapiens (human) MCF-7 cells assessed as surviving fraction at 100 uM after 48 hr by SRB assay relative to control. The format is functional.
In assay [4] the test system is MCF7. The experiment in a line: Cytotoxicity against Homo sapiens (human) MCF7 cells assessed as surviving fraction at 25 uM after 48 hr by SRB assay relative to control. Format: functional.
Assay [5] concerns MCF7. The experiment in a line: Cytotoxicity against Homo sapiens (human) MCF-7 cells after 48 hr by SRB assay relative to control. Particulars: MCF7, 48 h. The format is functional, cell-based.
Assay [6] deals with MCF7. Kind of assay: Radiosensitizing activity against Homo sapiens (human) gamma-irradiated MCF-7 cells assessed as surviving fraction at 100 uM after 48 hr by SRB assay (reference value: 0.927 +/- 0.02). The format is functional.
Assay [7] relates to MCF7. The experiment in a line: Radiosensitizing activity against Homo sapiens (human) gamma-irradiated MCF-7 cells assessed as surviving fraction at 10 uM after 48 hr by SRB assay (reference value: 0.927 +/- 0.02). Format: functional.
The subject of assay [8] is MCF7. Kind of assay: Radiosensitizing activity against Homo sapiens (human) gamma-irradiated MCF-7 cells assessed as surviving fraction at 25 uM after 48 hr by SRB assay (reference value: 0.927 +/- 0.02). The format is functional.
Assay [9] deals with MCF7. Kind of assay: Radiosensitizing activity against Homo sapiens (human) gamma-irradiated MCF-7 cells assessed as surviving fraction at 50 uM after 48 hr by SRB assay (reference value: 0.927 +/- 0.02). Format: functional.
For assay [10], the system named is MCF7. The experiment in a line: Potentiation of gamma-irradiation-induced cytotoxicity against Homo sapiens (human) MCF-7 cells after 48 hr by SRB assay. The format is functional, cell-based. As to conditions: MCF7, light or radiation study.

As to `CC1(C)CC(=O)C2=C(C1)N(c1ccc(S(N)(=O)=O)cc1)c1ncnc(N=C=S)c1C2c1ccc(F)cc1` (stereo not given), the results for the “fold change (FC)” value in the assay on MCF7 [1], in the assay with MCF7 [2] and with MCF7 [4] were 0.487, 0.922 and 0.755, respectively. Further, in the assay on MCF7 [3], the “fold change (surviving fraction)” value is reported as 0.534. The compound further yielded an IC50 in the assay with MCF7 [5] of 85.6 µM.
For `CC1(C)CC(=O)C2=C(C1)N(c1ccc(S(N)(=O)=O)cc1)C(N)=C(C#N)C2c1ccc(F)cc1` (stereo not given), in that order: 0.427, 0.855, 0.562, 0.482 and 71.8 µM.
For `CC1(C)CC(=O)C2=C(C1)N(c1ccc(S(N)(=O)=O)cc1)c1nc[nH]c(=O)c1C2c1ccc(F)cc1` (stereo not given) the same measures were 0.499, 0.934, 0.757, 0.447 and 77.1 µM.
For `CC(=O)NC1=C(C#N)C(c2ccc(F)cc2)C2=C(CC(C)(C)CC2=O)N1c1ccc(S(N)(=O)=O)cc1` (stereo not given) the same measures were 0.598, 0.882, 0.763, 0.483 and 85.9 µM.
As to `CC(=O)N(C(C)=O)C1=C(C#N)C(c2ccc(F)cc2)C2=C(CC(C)(C)CC2=O)N1c1ccc(S(N)(=O)=O)cc1` (stereo not given), the “fold change (FC)” value in the assay with MCF7 [1] is 0.455; in the assay on MCF7 [2] it was 0.987; in the assay with MCF7 [4] it was 0.733. In the assay with MCF7 [3], the “fold change (surviving fraction)” value was 0.498. In addition, the IC50 in the assay on MCF7 [5] is 79.7 µM.
For `Cc1nc2c(c(=O)[nH]1)C(c1ccc(F)cc1)C1=C(CC(C)(C)CC1=O)N2c1ccc(S(N)(=O)=O)cc1` (stereo not given) the same measures were 0.494, 0.768, 0.654, 0.425 and 69.8 µM.
`CC1(C)CC(=O)C2=C(C1)N(c1ccc(S(N)(=O)=O)cc1)c1ncnc(N)c1C2c1ccc(F)cc1` (stereo not given): the “fold change (FC)” value came to 0.311 in the assay on MCF7 [1]; 0.795 with MCF7 [2]; 0.222 with MCF7 [6]; 0.448 in the assay on MCF7 [4]; 0.51 with MCF7 [7]; 0.347 with MCF7 [8]. In addition, in the assay with MCF7 [9], the “fold change (FC)” value is listed as 0.163. Moreover, the “fold change (surviving fraction)” value in the assay with MCF7 [3] amounted to 0.381. In addition, the IC50 in the assay on MCF7 [5] was 52.6 µM; with MCF7 [10], 28.5 µM.
For the compound `CCO/C=N/C1=C(C#N)C(c2ccc(F)cc2)C2=C(CC(C)(C)CC2=O)N1c1ccc(S(N)(=O)=O)cc1` (stereo not given), the “fold change (FC)” value in the assay on MCF7 [1] is reported as 0.477; with MCF7 [2] it was 0.904; with MCF7 [6], 0.156; in the assay with MCF7 [4], 0.62; with MCF7 [7] it was 0.677; in the assay on MCF7 [8] it was 0.428. In the assay with MCF7 [9], the “fold change (FC)” value is 0.199. For the same compound, the “fold change (surviving fraction)” value in the assay with MCF7 [3] is on record as 0.401. Further, the IC50 is 67.3 µM in the assay on MCF7 [5] and 36 µM in the assay with MCF7 [10].
With `CC1(C)CC(=O)C2=C(C1)N(c1ccc(S(N)(=O)=O)cc1)C(NC(=O)CCl)=C(C#N)C2c1ccc(F)cc1` (stereo not given), the “fold change (FC)” value in the assay on MCF7 [1] stood at 0.45; with MCF7 [2], 0.885; in the assay on MCF7 [4], 0.7. The “fold change (surviving fraction)” value in the assay with MCF7 [3] was 0.43. The compound also gave an IC50 with MCF7 [5] of 70.8 µM.
`CC1(C)CC(=O)C2=C(C1)N(c1ccc(S(N)(=O)=O)cc1)c1nc(CCl)[nH]c(=O)c1C2c1ccc(F)cc1` (stereo not given): the “fold change (FC)” value in the assay on MCF7 [1] was 0.784; in the assay on MCF7 [2] it was 0.984; in the assay on MCF7 [4], 0.77. Also, the “fold change (surviving fraction)” value in the assay with MCF7 [3] was determined as 0.768. Further, the IC50 in the assay on MCF7 [5] was greater than 100 µM.
For `CC1(C)CC(=O)C2=C(C1)N(c1ccc(S(N)(=O)=O)cc1)c1nc(CC#N)[nH]c(=O)c1C2c1ccc(F)cc1` (stereo not given), the entries for the “fold change (FC)” value with MCF7 [1], with MCF7 [2] and in the assay with MCF7 [4] were 0.662, 0.976 and 0.864, respectively. The “fold change (surviving fraction)” value in the assay with MCF7 [3] is recorded as 0.6. Further, the IC50 with MCF7 [5] is greater than 100 µM.
For `CCNC(=S)NC1=C(C#N)C(c2ccc(F)cc2)C2=C(CC(C)(C)CC2=O)N1c1ccc(S(N)(=O)=O)cc1` (stereo not given) the same measures were 0.642, 0.924, 0.852, 0.609 and greater than 100 µM.
Regarding `CC1(C)CC(=O)C2=C(C1)N(c1ccc(S(N)(=O)=O)cc1)C(N1C(=O)CCC1=O)=C(C#N)C2c1ccc(F)cc1` (stereo not given), the “fold change (FC)” value amounted to 0.678 with MCF7 [1], 0.933 with MCF7 [2] and 0.885 with MCF7 [4]. The “fold change (surviving fraction)” value with MCF7 [3] stood at 0.488. Besides, in the assay with MCF7 [5], it took 94.1 µM to reach half-maximal inhibition (IC50).
With `CC1(C)CC(=O)C2=C(C1)N(c1ccc(S(N)(=O)=O)cc1)C(N)=C(C(N)=O)C2c1ccc(F)cc1` (stereo not given), the “fold change (FC)” value with MCF7 [1] is recorded as 0.409; in the assay on MCF7 [2], 0.906; in the assay on MCF7 [4], 0.711. The “fold change (surviving fraction)” value in the assay on MCF7 [3] is on record as 0.493. In addition, in the assay on MCF7 [5], the IC50 amounted to 75.2 µM.
As for `CC1(C)CC(=O)C2=C(C1)N(c1ccc(S(N)(=O)=O)cc1)C(N)=C(C1=NCCN1)C2c1ccc(F)cc1` (stereo not given), the “fold change (FC)” value in the assay with MCF7 [1] was found to be 0.423; in the assay on MCF7 [2] it was 0.873; in the assay on MCF7 [4] it was 0.679. In addition, the “fold change (surviving fraction)” value with MCF7 [3] was determined as 0.581. This compound returned an IC50 in the assay on MCF7 [5] of 87 µM.
For `CC(=O)CC(=O)NC1=C(C#N)C(c2ccc(F)cc2)C2=C(CC(C)(C)CC2=O)N1c1ccc(S(N)(=O)=O)cc1` (stereo not given) the same measures were 0.76, 0.919, 0.905, 0.663 and greater than 100 µM.
For `CC1(C)CC(=O)C2=C(C1)N(c1ccc(S(N)(=O)=O)cc1)c1nc[nH]c(=S)c1C2c1ccc(F)cc1` (stereo not given), in that order: 0.686, 0.99, 0.901, 0.608 and greater than 100 µM.
Regarding `CC1(C)CC(=O)C2=C(C1)N(c1ccc(S(N)(=O)=O)cc1)c1ncnc(Cl)c1C2c1ccc(F)cc1` (stereo not given), the “fold change (FC)” value with MCF7 [1] amounted to 0.635; in the assay on MCF7 [2] it was 0.909; in the assay on MCF7 [4], 0.785. For the same compound, in the assay on MCF7 [3], the “fold change (surviving fraction)” value was determined as 0.457. In addition, in the assay on MCF7 [5], the IC50 was determined as 85.6 µM.
For `CCOC(=O)Cn1cnc2c(c1=O)C(c1ccc(F)cc1)C1=C(CC(C)(C)CC1=O)N2c1ccc(S(N)(=O)=O)cc1` (stereo not given), the “fold change (FC)” value in the assay with MCF7 [1] is listed as 0.686; in the assay on MCF7 [2], 0.969; in the assay on MCF7 [4], 0.898. The “fold change (surviving fraction)” value with MCF7 [3] amounted to 0.572. The compound further had an IC50 with MCF7 [5] greater than 100 µM.
For `CC1(C)CC(=O)C2=C(C1)N(c1ccc(S(N)(=O)=O)cc1)c1ncnc(NN)c1C2c1ccc(F)cc1` (stereo not given), in that order: 0.478, 0.959, 0.652, 0.518 and 81.2 µM.
